Data reported in article PMC7067653 (Bioorganic & medicinal chemistry letters, 2020).

How the values were obtained:
[1] = biological target: human dopamine D1 receptor (Homo sapiens, UniProt P21728); experiment: Binding affinity at human dopamine D1 receptor; details: amide versus aniline precursor
[2] = biological target: human dopamine D2 receptor (Homo sapiens, UniProt P14416); experiment: Binding affinity at human dopamine D2 receptor; details: triplicate; na = not active (< 50% inhibition in a primary assay)
human dopamine D2 receptor, sequence (P14416 whole entry): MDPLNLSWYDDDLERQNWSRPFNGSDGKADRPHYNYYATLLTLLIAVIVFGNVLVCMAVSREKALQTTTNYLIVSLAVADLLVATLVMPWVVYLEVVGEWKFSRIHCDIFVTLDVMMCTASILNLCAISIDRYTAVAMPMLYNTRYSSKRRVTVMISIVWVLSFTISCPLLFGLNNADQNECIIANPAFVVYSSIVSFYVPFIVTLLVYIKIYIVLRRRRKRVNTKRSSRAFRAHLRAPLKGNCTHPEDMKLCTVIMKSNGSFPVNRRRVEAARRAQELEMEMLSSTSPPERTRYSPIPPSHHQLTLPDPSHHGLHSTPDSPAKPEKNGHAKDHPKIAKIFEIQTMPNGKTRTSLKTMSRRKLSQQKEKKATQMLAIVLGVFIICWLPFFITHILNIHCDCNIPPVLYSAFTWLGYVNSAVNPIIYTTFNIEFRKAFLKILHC

[3] = biological target: T1, human serotonin 5-HT1A receptor (Homo sapiens, UniProt P08908); experiment: Binding affinity at human serotonin 5-HT1A receptor; details: triplicate; na = not active (< 50% inhibition in a primary assay)
T1 sequence (P08908 1-422): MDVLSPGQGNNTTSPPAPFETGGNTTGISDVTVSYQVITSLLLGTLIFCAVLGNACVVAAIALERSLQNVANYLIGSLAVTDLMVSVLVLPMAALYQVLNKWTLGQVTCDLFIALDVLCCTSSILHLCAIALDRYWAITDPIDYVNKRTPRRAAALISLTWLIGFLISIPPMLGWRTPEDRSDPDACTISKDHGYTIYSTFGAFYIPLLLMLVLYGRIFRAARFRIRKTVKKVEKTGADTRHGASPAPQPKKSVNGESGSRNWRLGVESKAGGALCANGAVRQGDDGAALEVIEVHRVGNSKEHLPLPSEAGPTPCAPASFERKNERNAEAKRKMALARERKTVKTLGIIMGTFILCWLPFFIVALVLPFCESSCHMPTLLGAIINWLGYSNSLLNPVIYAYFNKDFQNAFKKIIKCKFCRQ

human dopamine D1 receptor, sequence (P21728 whole entry): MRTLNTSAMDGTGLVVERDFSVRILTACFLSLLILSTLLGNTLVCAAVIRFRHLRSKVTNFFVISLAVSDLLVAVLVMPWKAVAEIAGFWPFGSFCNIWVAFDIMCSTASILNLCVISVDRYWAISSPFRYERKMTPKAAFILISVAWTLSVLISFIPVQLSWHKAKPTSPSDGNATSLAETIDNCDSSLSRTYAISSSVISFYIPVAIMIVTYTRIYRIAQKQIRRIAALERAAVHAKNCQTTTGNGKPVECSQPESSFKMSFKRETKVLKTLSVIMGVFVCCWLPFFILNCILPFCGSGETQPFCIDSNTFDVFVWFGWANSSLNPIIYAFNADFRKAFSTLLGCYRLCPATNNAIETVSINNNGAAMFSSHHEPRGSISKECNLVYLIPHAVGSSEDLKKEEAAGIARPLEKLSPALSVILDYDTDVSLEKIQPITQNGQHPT

Row | fold increase in D1 receptor affinity on N-acylation [1] [fold] | Ki D2 [2] | SMILES | Ki 5-HT1A [3]
1 | ≤ 12 | no D2 receptor affinity | C=CCOc1c(OC)cc2c3c1-c1cc(NC(C)=O)ccc1CC3N(C)CC2 (stereo not shown) [Compound 20b] | 
2 | ≤ 12 |  | C#CCOc1c(OC)cc2c3c1-c1cc(NC(C)=O)ccc1CC3N(C)CC2 (stereo not shown) [Compound 20c] | 
3 |  |  | C=CCOc1c(OC)cc2c3c1-c1cc(N)ccc1CC3N(C)CC2 (stereo not shown) [Compound 19d] | no affinity
